From ChEMBL document CHEMBL5356930, “Small-molecule inhibitors of bacterial-producing metallo-β-lactamases: insights into their resistance mechanisms and biochemical analyses of their activities” (RSC Med Chem, 2023)

Key:
[1] = biological target: T1, Metallo-beta-lactamase type 2 (Bacteria, UniProt C7C422); assay: Inhibition of bacterial NDM-1 (unknown origin) using nitrocefin as substrate incubated for 10 mins followed by substrate addition by absorbance based assay
[2] = biological target: T1, Metallo-beta-lactamase type 2; assay: Binding affinity to bacterial NDM-1 (unknown origin) assessed as inhibition constant
[3] = biological target: T1, Metallo-beta-lactamase type 2; assay: Inhibition of bacterial NDM-1 (unknown origin)
[4] = Cytotoxicity against human HeLa cells; assay type: toxicity, cell-based
Escherichia coli = assay: Antibacterial activity against NDM-1-producing Escherichia coli in presence of meropenem; assay type: functional
[5] = Binding affinity to bacterial Metallo-beta-lactamase IMP-1 (unknown origin) assessed as inhibition constant; design: species or system Bacteria
[6] = Cytotoxicity against mouse L929 cells assessed as cell viability >533 uM relative to control; assay type: toxicity, cell-based; conditions: read-out: Activity
[7] = Cytotoxicity against human HEK293 cells assessed as cell viability >533 uM relative to control; assay type: toxicity, cell-based; conditions: read-out: Activity
Proteus mirabilis = assay: Antibacterial activity against IMP-type producing Proteus mirabilis UNC KPC 170 clinical isolate in presence of imipenem; assay type: functional
Klebsiella pneumoniae = assay: Antibacterial activity against IMP-type producing Klebsiella pneumoniae LC 82 clinical isolate in presence of imipenem; assay type: functional
[8] = biological target: Metallo-beta-lactamase VIM-2 (Pseudomonas aeruginosa, UniProt D1MEN9); assay: Binding affinity to Metallo-beta-lactamase VIM-2 assessed as inhibition constant
Beta-lactamase NDM-1 = Beta-lactamase NDM-1 (Escherichia coli, UniProt E5KIY2); assay: Inhibition of NDM-1 in Escherichia coli assessed as reduction in imipenem hydrolytic activity
Enterobacter sp. = assay: Antibacterial activity against IMP-type producing Enterobacter sp. 42713 clinical isolate in presence of imipenem; assay type: functional
L929 = assay: Cytotoxicity against mouse L929 cells at 50 uM incubated for 48 hrs by CCK8 assay relative to control; assay type: toxicity, cell-based; conditions: l929, 48 h
[9] = biological target: T1, Metallo-beta-lactamase type 2; assay: Inhibition of bacterial NDM-1 (unknown origin) using imipenem as substrate by Agilent UV8453 Spectrometric analysis
[10] = Inhibition of bacterial Metallo-beta-lactamase GIM-1 using nitrocefin as substrate; design: species or system Bacteria
[11] = Inhibition of bacterial Metallo-beta-lactamase VIM-2 (unknown origin); design: species or system Bacteria
[12] = Binding affinity to bacterial Metallo-beta-lactamase VIM-2 (unknown origin) assessed as inhibition constant; design: species or system Bacteria
[13] = Inhibition of bacterial Metallo-beta-lactamase VIM-4 (unknown origin); design: species or system Bacteria
Beta-lactamase VIM-1 = Beta-lactamase VIM-1 (Bacteria, UniProt Q8GDC1); assay: Inhibition of bacterial Metallo-beta-lactamase VIM-1 (unknown origin)
[14] = Inhibition of Acinetobacter baumannii recombinant NDM-1 using nitrocefin as substrate preincubated for 10 mins followed by substrate addition by spectrophotometric analysis
Bacteria = assay: Inhibition of bacterial Metallo-beta-lactamase VIM-5 (unknown origin) at 100 uM relative to control
[15] = biological target: Beta-lactamase VIM-1 (Bacteria) (UniProt Q8GDC1); assay: Inhibition of bacterial Metallo-beta-lactamase VIM-1 (unknown origin) at 100 uM relative to control
MCF7 = assay: Cytotoxicity against human MCF7 cells at 12.5 uM relative to control; assay type: toxicity, cell-based; conditions: mcf7, 12.5 µM
[16] = biological target: T1, Metallo-beta-lactamase type 2; assay: Inhibition of bacterial NDM-1 (unknown origin) using imipenem as substrate

T1 sequence (C7C422 whole entry): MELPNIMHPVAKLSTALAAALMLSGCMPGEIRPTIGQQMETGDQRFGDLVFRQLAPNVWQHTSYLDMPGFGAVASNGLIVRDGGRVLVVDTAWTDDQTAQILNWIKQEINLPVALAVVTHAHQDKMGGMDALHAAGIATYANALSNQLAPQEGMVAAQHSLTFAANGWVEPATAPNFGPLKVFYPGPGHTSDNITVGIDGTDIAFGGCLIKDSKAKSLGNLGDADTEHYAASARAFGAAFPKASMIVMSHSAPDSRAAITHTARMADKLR
Sequence of Beta-lactamase NDM-1 (E5KIY2 whole entry): as the sequence (C7C422 whole entry) above

Structure (SMILES): O=C(Cc1ccccc1)N[C@@H]1C(=O)N2C(C(=O)O)=C(CSc3cccc[n+]3[O-])CS[C@H]12
- IC50 [1]: 7600 nM

Structure (SMILES): CN1CCN(C(=S)N/N=C/c2ccccc2O)CC1
- Ki [2]: 440000 nM
- IC50 [3]: 302 nM
- IC50 [4]: > 64 µg/mL

Structure (SMILES): CC(C)c1cc2c(c(O)c1O)[C@@]1(C(=O)O)CCCC(C)(C)[C@@H]1CC2 [CARNOSIC ACID]
- MIC (Escherichia coli): 4 µg/mL

Structure (SMILES): CCOC(=O)[C@]1(CS)N[C@@H](C(=O)O)C(C)(C)S1
- Ki [5]: 2000 nM
- viability [6]: 85%
- viability at 533 µM [7]: 85%
- MIC (Proteus mirabilis): 8 µg/mL
- MIC (Klebsiella pneumoniae): 0.5 µg/mL
- Ki [8]: 1900 nM
- Ki ([2]; read-out: Ki): 600 nM
- IC50 (Beta-lactamase NDM-1): 10000 nM
- MIC (Enterobacter sp.): 8 µg/mL

Structure (SMILES): S=C(N/N=C/c1ccccn1)Nc1ccc(Cl)cc1
- Activity (L929): > 60%
- IC50 [9]: 38 nM

Structure (SMILES): COP(=O)(CCSC(C)=O)NCc1ccccn1 (stereo not given)
- IC50 [10]: 86000 nM
- IC50 [11]: 2200 nM

Structure (SMILES): O=C(O)c1ccccc1CCn1c(-c2cccc(-c3ccccc3)c2)n[nH]c1=S
- Ki [12]: 38 nM
- IC50 [13]: 2100 nM
- IC50 (Beta-lactamase VIM-1): 1610 nM
- IC50 [11]: 80 nM

Structure (SMILES): CC1=C(CO)C(=O)O[C@@H]([C@@H](C)[C@H]2CC[C@H]3[C@@H]4C[C@H]5O[C@]56[C@@H](O)C=CC(=O)[C@]6(C)[C@H]4CC[C@]23C)C1 [WITHAFERIN A]
- IC50 [14]: 24000 nM

Structure (SMILES): Brc1ccc(-c2nnc3n2CCCS3)cc1
- inhibition (Bacteria): 33%
- inhibition [15]: 23%
- IC50 [11]: 38400 nM

Structure (SMILES): O=S(=O)(Nc1cccc2cccnc12)c1ccc(Cl)cc1
- Activity (MCF7): < 60%
- Ki ([2]; read-out: Ki): 5900 nM
- IC50 [16]: 20 nM

Structure (SMILES): O=C(O)c1cccc2oc(-c3ccc4cc(OCc5ccccc5)ccc4c3O)nc12
- IC50 [1]: 380 nM
